Results reported in the Kinase Knowledgebase extract (Sharma et al. 2016).

How the values were obtained:
EGFR (human) [1] = target: EGFR (human) (UniProt P00533); settings: a431
EGFR (human) [2] = target: EGFR (human) (UniProt P00533); settings: sk-br-3
EGFR (human) [3] = target: EGFR (human) (UniProt P00533); settings: mda468
EGFR (mice) = EGFR (mice) (UniProt P00533); settings: swiss 3t3 fibroblast, dose or concentration not given here
Chain of EGFR (mice) (P00533 whole entry, looked up): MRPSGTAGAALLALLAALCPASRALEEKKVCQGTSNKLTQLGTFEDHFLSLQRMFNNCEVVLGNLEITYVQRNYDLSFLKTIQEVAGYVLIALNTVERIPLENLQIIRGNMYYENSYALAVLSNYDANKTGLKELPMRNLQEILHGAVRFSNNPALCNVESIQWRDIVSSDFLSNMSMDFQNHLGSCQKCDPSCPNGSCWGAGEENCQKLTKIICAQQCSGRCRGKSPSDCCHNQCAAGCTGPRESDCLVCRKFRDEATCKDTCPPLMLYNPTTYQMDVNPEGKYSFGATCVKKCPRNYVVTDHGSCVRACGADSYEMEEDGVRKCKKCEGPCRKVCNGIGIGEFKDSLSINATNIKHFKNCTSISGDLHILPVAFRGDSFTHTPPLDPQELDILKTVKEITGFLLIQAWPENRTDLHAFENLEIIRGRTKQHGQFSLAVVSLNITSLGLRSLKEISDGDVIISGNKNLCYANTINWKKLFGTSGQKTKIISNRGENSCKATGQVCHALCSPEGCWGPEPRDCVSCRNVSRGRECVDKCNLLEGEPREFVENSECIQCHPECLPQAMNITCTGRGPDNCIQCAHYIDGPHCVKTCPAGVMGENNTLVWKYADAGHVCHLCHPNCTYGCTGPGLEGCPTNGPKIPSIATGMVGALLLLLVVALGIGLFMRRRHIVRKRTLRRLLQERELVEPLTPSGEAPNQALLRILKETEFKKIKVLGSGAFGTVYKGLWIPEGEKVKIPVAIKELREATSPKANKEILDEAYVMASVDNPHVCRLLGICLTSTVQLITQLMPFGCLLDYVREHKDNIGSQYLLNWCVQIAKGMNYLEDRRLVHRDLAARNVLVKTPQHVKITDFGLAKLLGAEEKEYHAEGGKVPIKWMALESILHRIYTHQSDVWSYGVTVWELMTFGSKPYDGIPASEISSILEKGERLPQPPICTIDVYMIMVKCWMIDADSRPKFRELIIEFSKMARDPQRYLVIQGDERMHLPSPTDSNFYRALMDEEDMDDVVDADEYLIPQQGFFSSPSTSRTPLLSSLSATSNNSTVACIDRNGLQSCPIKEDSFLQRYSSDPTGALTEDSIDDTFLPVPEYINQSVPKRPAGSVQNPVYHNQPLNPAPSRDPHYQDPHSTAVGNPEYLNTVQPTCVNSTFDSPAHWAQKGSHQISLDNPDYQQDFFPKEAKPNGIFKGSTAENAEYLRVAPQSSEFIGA

Chain of EGFR (human) (P00533 whole entry, looked up): as above

Row | IC50 (EGFR (human) [2]) | SMILES | further results
1 | < 10 nM | NNc1ncc2c(NCc3ccccc3)ncnc2n1 | IC50 (EGFR (human) [1]): 124 nM
2 | 1500 nM | Nc1cc2ncnc(Nc3cccc([N+](=O)[O-])c3)c2cn1 | –
3 | > 1000 nM | c1ccc(CNc2ncnc3[nH]ccc23)cc1 | IC50 (EGFR (human) [1]): > 1000 nM
4 | 800 nM | Nc1cc2ncnc(Nc3cccc(Br)c3)c2cn1 | –
5 | > 10000 nM | Fc1ccc2ncnc(Nc3cccc(Br)c3)c2n1 | –
6 | 100 nM | CNc1ccc2ncnc(Nc3cccc(Br)c3)c2n1 | –
7 | 39 nM | CN(C)c1cc2c(Nc3cccc(Br)c3)ncnc2cn1 | IC50 (EGFR (human) [3]): 12000 nM
8 | – | Nc1cc2ncnc(NCc3ccccc3)c2cn1 | inhibition (EGFR (mice)): 5%
9 | 2660 nM | Nc1ccc2ncnc(Nc3cccc(Br)c3)c2n1 | –
10 | < 10 nM | COc1cc2c(Nc3cccc(Br)c3)ncnc2cn1 | –
11 | 71 nM | CN(C)c1ccc2ncnc(Nc3cccc(Br)c3)c2n1 | –
12 | < 10 nM | CNc1cc2c(Nc3cccc(Br)c3)ncnc2cn1 | IC50 (EGFR (human) [3]): 3000 nM
